Tests used:
[1] = tested on: Androgen-induced PSA-luciferase; test: Androgen-induced PSA (6.1 kb)-luciferase reporter assay in LNCaP cells; assay type: cell-based; details: Homo sapiens, R1881 1 nM, 24 h
Method: To determine the IC50, treatments were normalized to the maximum activity with androgen-induction (in the absence of test compounds, vehicle only) (Table 1).
Luciferase Assay: Lysates were thawed on ice then collected into V-bottom 96-well tissue culture plates. Lysates were centrifuged at 4° C. for 5 minutes at 4000 rpm. To measure luminescence of LNCaP cell lysates the Firefly Luciferase Assay System (Promega) was employed, according to manufacturer's protocol.
Comparisons between treatment and control groups were compared using Two-Way ANOVA with post-hoc Dunnett's and Tukey's tests. Differences were considered statistically significant at P values less than 0.05. Densitometric quantification of relative AR levels was determined by Image.

[2] = tested on: AR full-length and AR V7 driven genes in LNCaP95 cells; test: mRNA expression of androgen responsive genes in LNCaP95 (+R1881) cells (NanoString Androgen Receptor/Prostate Cancer gene panel)
Method: Relative mRNA expression in LNCaP95 (+R1881) was measured for Canonical AR target genes (FIG. 9A) and AR V7-activated genes (FIG. 9B).
Data shown in FIGS. 8A-8B and 9A-9B and Table 5 were generated using NanoString Androgen Receptor/Prostate Cancer gene panel.

VCaP tumors = test: VCaP xenograft model, castrated male SCID Beige mice; assay type: in vivo; details: oral, castrated male SCID Beige mice (FIGS. 1-4)
Method: Tumor growth was measured in male SCID Beige mice bearing VCaP tumors. […] Individual tumor volume change from baseline measured on day 17 of the experiment (FIGS. 2A-2B). Serum prostate-specific antigen (PSA) was measured in mice at the end of each treatment (FIG. 3). Body weight of the mice were captured biweekly in the animals and normalized to baseline (FIG. 4).

[3] = tested on: androgen responsive genes in LNCaP cells; test: mRNA expression of androgen responsive genes in LNCaP cells (NanoString Androgen Receptor/Prostate Cancer gene panel)

## CC(C)(c1ccc(OCc2ocnc2S(C)(=O)=O)cc1)c1cc(Cl)c(OCCCl)c(Cl)c1 [Compound A13, 5-((4-(2-(3,5-dichloro-4-(2-chloroethoxy)phenyl)propan-2-yl)phenoxy)methyl)-4-(methylsulfonyl)oxazole]
[1]
  IC50: 592 nM

## CC(C)(c1ccc(OCc2ocnc2S(C)(=O)=O)cc1)c1cc(Cl)c(OCCCl)c(C#N)c1 [Compound A28]
[1]
  IC50: 400 nM

## Cc1cc(C(C)(C)c2ccc(OCc3ocnc3S(C)(=O)=O)cc2)cc(C#N)c1OCCCl [Compound A29]
[1]
  IC50: 466 nM

## CC(Oc1ccc(C(C)(C)c2cc(Cl)c(OCCCl)c(Cl)c2)cc1)c1ocnc1S(C)(=O)=O (centres unmarked) [Compound A35, 5-(1-(4-(2-(3,5-dichloro-4-(2-chloroethoxy)phenyl)propan-2-yl)phenoxy)ethyl)-4-(methylsulfonyl)oxazole]
[1]
  IC50: 515 nM

## CC(C)(c1ccc(OCc2coc(NS(C)(=O)=O)n2)cc1)c1cc(Cl)c(OCCCl)c(Cl)c1 [Compound A38, N-(4-((4-(2-(3,5-dichloro-4-(2-chloroethoxy)phenyl)propan-2-yl)phenoxy)methyl)oxazol-2-yl)methanesulfonamide]
[1]
  IC50: 631 nM

## CC(C)(c1ccc(OCc2ncc(S(C)(=O)=O)o2)cc1)c1cc(Cl)c(OCCCl)c(Cl)c1 [Compound A66]
[1]
  IC50: 890 nM

## CC(C)(c1ccc(OCc2ccnc(NS(C)(=O)=O)n2)cc1)c1cc(Cl)c(OCCCl)c(Cl)c1 [Compound A74]
[1]
  IC50: 658 nM

## CC(C)(c1ccc(OCc2ncc(S(C)(=O)=O)s2)cc1)c1cc(Cl)c(OCCCl)c(C#N)c1 [Compound A93]
[1]
  IC50: 205 nM

## CC(C)(c1ccc(OCc2ccnc(NS(C)(=O)=O)n2)cc1)c1cc(Cl)c(OCCCl)c(C#N)c1 [Compound A109, N-(4-((4-(2-(3-chloro-4-(2-chloroethoxy)-5-cyanophenyl)propan-2-yl)phenoxy)methyl)pyrimidin-2-yl)methanesulfonamide]
[2]; 7.5 μM
  log2 Fold Change ADAMTS1: −3.96
  log2 Fold Change CCND1: −3.96
  log2 Fold Change FKBP5: −4.18
  log2 Fold Change KLK2: −5.07
  log2 Fold Change KLK3: −5.48
  log2 Fold Change NCAPD3: −3.8
  log2 Fold Change NDRG1: −4.47
  log2 Fold Change NKX3-1: −4.23
  log2 Fold Change PMEPA1: −3.93
  log2 Fold Change PRR15L: −3.89
[2]; FIGS. 8A-8B and 9A-9B
  modulation of AR full-length and AR V7 driven genes: can modulate AR full-length and AR V7 driven genes
VCaP tumors; in combination with enzalutamide
  anti-tumor response: excellent anti-tumor response
VCaP tumors; monotherapy
  anti-tumor response: excellent anti-tumor response
[1]
  IC50: 535 nM
[3]; LNCaP cells, FIG. 6A
  response in the androgen response genes FKBP5, TMPRSS2, KLK2, KLK3, and NKX3.1 (relative mRNA expression): dose-dependent response
[3]; LNCaP, 7.5 μM single agent
  Log2Fold Change ACSL3: −3.62
  Log2Fold Change AKAP12: −3.84
  Log2Fold Change CDC6: −3.60
  Log2Fold Change CENPN: −2.13
  Log2Fold Change EAF2: −3.81
  Log2Fold Change ELL2: −3.05
  Log2Fold Change ERRFI1: −2.76
  Log2Fold Change FAM105A: −2.78
  Log2Fold Change FKBP5: −4.47
  Log2Fold Change KLK2: −2.71
  Log2Fold Change KLK3: −2.42
  Log2Fold Change NCAPD3: −4.40
  Log2Fold Change NDRG1: −4.17
  Log2Fold Change NKX3-1: −2.28
  Log2Fold Change PLPP1: −3.53
  Log2Fold Change PMEPA1: −2.16
  Log2Fold Change RHOU: −3.03
  Log2Fold Change SNAI2: −1.79
  Log2Fold Change STEAP4: −4.22
  Log2Fold Change TMPRSS2: −3.32
[3]; LNCaP, FIGS. 5A-5B and Table 4
  modulation of androgen receptor full-length driven genes: can modulate androgen receptor0 full-length driven genes similar to enzalutamide

## Cc1cnc(NS(C)(=O)=O)nc1COc1ccc(C(C)(C)c2cc(Cl)c(OCCCl)c(C#N)c2)cc1 [Compound A122]
[1]
  IC50: 258 nM

## CCS(=O)(=O)Nc1nc(COc2ccc(C(C)(C)c3cc(Cl)c(OCCCl)c(C#N)c3)cc2)co1 [Compound A126]
[1]
  IC50: 629 nM

## CCS(=O)(=O)Nc1nccc(COc2ccc(C(C)(C)c3cc(Cl)c(OCCCl)c(C#N)c3)cc2)n1 [Compound A131]
[1]
  IC50: 1100 nM

## CC(C)(c1ccc(OCc2nc(S(C)(=O)=O)cs2)cc1)c1cc(Cl)c(OCCCl)c(C#N)c1 [Compound A136]
[1]
  IC50: 601 nM

## C[C@H](Oc1ccc(C(C)(C)c2cc(Cl)c(OCCCl)c(Cl)c2)cc1)c1ccnc(NS(C)(=O)=O)n1 [Compound A170]
[1]
  IC50: 651 nM

## CC(O)c1cc(C(=O)N[C@@H](C)Cn2ccc(-c3ccc(C#N)c(Cl)c3)n2)[nH]n1 (some centres unmarked) [Darolutamide, darolutamide, reference compound]
[3]; LNCaP cells, FIG. 7A-7B
  activity on gene expression in LNCaP: not very active

From US20220202780A1, “PHARMACEUTICAL COMPOSITIONS AND COMBINATIONS COMPRISING INHIBITORS OF THE ANDROGEN RECEPTOR AND USES THEREOF” (ESSA Pharma, Inc., priority 2019, published 2022)
